# From ChEMBL document CHEMBL1201861, “Genomics of Drug Sensitity in Cancer screening data, Wellcome Trust Sanger Institute”
# Experiments:
# Test in all cases: cells
# KURAMOCHI = format: functional, cell-based, Homo sapiens; conditions: Homo sapiens, KURAMOCHI;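 also: growth inhibition of KURAMOCHI cells, read out with a cell viability assay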
# Description: SANGER: Inhibition of human KURAMOCHI cell growth in a cell viability assay.
# NCI-H1650 = format: functional, cell-based, Homo sapiens; conditions: Homo sapiens, NCI-H1650;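 also: growth inhibition of human NCI-H1650 cells measured by a cell viability assay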
# Description: SANGER: Inhibition of human NCI-H1650 cell growth in a cell viability assay.
# HCC2218 = format: functional, cell-based, Homo sapiens; conditions: Homo sapiens, HCC2218;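 also: cell viability assay read-out, with IC50 given as the concentration that inhibits growth of the cell line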
# Description: SANGER: Inhibition of human HCC2218 cell growth in a cell viability assay.
# IST-MEL1 = format: functional, cell-based, Homo sapiens; conditions: Homo sapiens, IST-MEL1;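 also: growth inhibition of the cell line, read out with a cell viability assay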
# Description: SANGER: Inhibition of human IST-MEL1 cell growth in a cell viability assay.
# SH-4 = format: functional, cell-based; conditions: Homo sapiens;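 also: growth inhibition of SH-4 cells, read out with a cell viability assay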
# Description: SANGER: Inhibition of human SH-4 cell growth in a cell viability assay.
# 697 = format: functional, cell-based, Homo sapiens; conditions: Homo sapiens
# Description: SANGER: Inhibition of human 697 cell growth in a cell viability assay.
# NOS-1 = format: functional, cell-based, Homo sapiens; conditions: Homo sapiens, NOS-1;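 also: growth inhibition of the human NOS-1 cell line, read out with a cell viability assay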
# Description: SANGER: Inhibition of human NOS-1 cell growth in a cell viability assay.
# no-10 = format: functional, cell-based, Homo sapiens; conditions: Homo sapiens;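 also: growth inhibition of no-10 cells, read out with a cell viability assay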
# Description: SANGER: Inhibition of human no-10 cell growth in a cell viability assay.
# EW-3 = format: functional, cell-based, Homo sapiens; conditions: Homo sapiens, EW-3;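 also: cell viability assay read-out, IC50 reflects inhibition of growth of the EW-3 cells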
# Description: SANGER: Inhibition of human EW-3 cell growth in a cell viability assay.
# TGW = format: functional, cell-based, Homo sapiens; conditions: Homo sapiens, TGW;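 also: growth inhibition of human TGW cells, read out with a cell viability assay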
# Description: SANGER: Inhibition of human TGW cell growth in a cell viability assay.
# ETK-1 = format: functional, cell-based, Homo sapiens; conditions: Homo sapiens, ETK-1;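 also: growth inhibition of human ETK-1 cells, read out with a cell viability assay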
# Description: SANGER: Inhibition of human ETK-1 cell growth in a cell viability assay.
# KALS-1 = format: functional, cell-based, Homo sapiens; conditions: Homo sapiens, KALS-1; read-out: IC50;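 also: growth inhibition of KALS-1 cells, determined with a cell viability assay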
# Description: SANGER: Inhibition of human KALS-1 cell growth in a cell viability assay.
# TE-11 = format: functional, cell-based; conditions: Homo sapiens;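 also: growth inhibition of human TE-11 cells, read out by a cell viability assay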
# Description: SANGER: Inhibition of human TE-11 cell growth in a cell viability assay.
# RPMI-8866 = format: functional, cell-based, Homo sapiens; conditions: Homo sapiens, RPMI-8866
# Description: SANGER: Inhibition of human RPMI-8866 cell growth in a cell viability assay.
# KU812 cell line = format: functional, cell-based, Homo sapiens; conditions: Homo sapiens, KU812;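 also: growth inhibition of KU812 cells, read out with a cell viability assay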
# Description: SANGER: Inhibition of human KU812 cell growth in a cell viability assay.
# SW982 = format: functional, cell-based; conditions: Homo sapiens;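 also: growth inhibition of SW982 cells, read out with a cell viability assay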
# Description: SANGER: Inhibition of human SW982 cell growth in a cell viability assay.
# RCC10RGB = format: functional, cell-based, Homo sapiens; conditions: Homo sapiens, RCC10RGB;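 also: growth inhibition of human RCC10RGB cells, read out by a cell viability assay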
# Description: SANGER: Inhibition of human RCC10RGB cell growth in a cell viability assay.
# GOTO = format: functional, cell-based, Homo sapiens; conditions: Homo sapiens, GOTO;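 also: growth inhibition of GOTO cells, read out by a cell viability assay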
# Description: SANGER: Inhibition of human GOTO cell growth in a cell viability assay.
# MC116 = format: functional, cell-based, Homo sapiens; conditions: Homo sapiens, MC116;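 also: growth inhibition of MC116 cells, read out with a cell viability assay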
# Description: SANGER: Inhibition of human MC116 cell growth in a cell viability assay.
# SK-MEL-1 = format: functional, cell-based, Homo sapiens; conditions: Homo sapiens, SK-MEL-1;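 also: growth inhibition of human SK-MEL-1 cells, read out by a cell viability assay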
# Description: SANGER: Inhibition of human SK-MEL-1 cell growth in a cell viability assay.
# MZ1-PC = format: functional, cell-based, Homo sapiens; conditions: Homo sapiens, MZ1-PC;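 also: cell viability assay measuring growth inhibition of human MZ1-PC cells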
# Description: SANGER: Inhibition of human MZ1-PC cell growth in a cell viability assay.
# RXF 393 = format: functional, cell-based, Homo sapiens; conditions: Homo sapiens, RXF 393;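 also: growth inhibition of human RXF 393 cells, read out with a cell viability assay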
# Description: SANGER: Inhibition of human RXF393 cell growth in a cell viability assay.
# NCI-H446 = format: functional, cell-based, Homo sapiens; conditions: Homo sapiens, NCI-H446;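 also: growth inhibition of NCI-H446 cells determined by a cell viability assay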
# Description: SANGER: Inhibition of human NCI-H446 cell growth in a cell viability assay.
# KP-N-YS = format: functional, cell-based, Homo sapiens; conditions: Homo sapiens, KP-N-YS;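 also: cell viability assay measuring inhibition of cell line growth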
# Description: SANGER: Inhibition of human KP-N-YS cell growth in a cell viability assay.
# TGBC1TKB = format: functional, cell-based, Homo sapiens; conditions: Homo sapiens, TGBC1TKB;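 also: growth inhibition of TGBC1TKB cells, read out by a cell viability assay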
# Description: SANGER: Inhibition of human TGBC1TKB cell growth in a cell viability assay.
# SF-539 = format: functional, cell-based, Homo sapiens; conditions: Homo sapiens, SF-539;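 also: Read-out is a cell viability assay, with IC50 reflecting inhibition of cell growth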
# Description: SANGER: Inhibition of human SF539 cell growth in a cell viability assay.
# HL-60 = format: functional, cell-based, Homo sapiens; conditions: Homo sapiens, HL-60;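 also: growth inhibition of human HL-60 cells, read out with a cell viability assay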
# Description: SANGER: Inhibition of human HL-60 cell growth in a cell viability assay.
# JVM-2 = format: functional, cell-based, Homo sapiens; conditions: Homo sapiens, JVM-2;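 also: growth inhibition of JVM-2 cells determined by a cell viability assay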
# Description: SANGER: Inhibition of human JVM-2 cell growth in a cell viability assay.
# KGN = format: functional, cell-based, Homo sapiens; conditions: Homo sapiens, KGN;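 also: growth inhibition of KGN cells, read out with a cell viability assay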
# Description: SANGER: Inhibition of human KGN cell growth in a cell viability assay.
# NCI-H2126 = format: functional, cell-based, Homo sapiens; conditions: Homo sapiens, NCI-H2126;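 also: growth inhibition of the cancer cell line, determined with a cell viability readout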
# Description: SANGER: Inhibition of human NCI-H2126 cell growth in a cell viability assay.
# KS-1 = format: functional, cell-based; conditions: Homo sapiens;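 also: growth inhibition of KS-1 cells, read out with a cell viability assay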
# Description: SANGER: Inhibition of human KS-1 cell growth in a cell viability assay.
# KNS-42 = format: functional, cell-based; conditions: Homo sapiens;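 also: growth inhibition of KNS-42 cells, read out with a cell viability assay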
# Description: SANGER: Inhibition of human KNS-42 cell growth in a cell viability assay.
# K562 = format: functional, cell-based, Homo sapiens; conditions: Homo sapiens, K562
# Description: SANGER: Inhibition of human K-562 cell growth in a cell viability assay.
# TGBC24TKB = format: functional, cell-based; conditions: Homo sapiens;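 also: growth inhibition of human TGBC24TKB cells, read out with a cell viability assay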
# Description: SANGER: Inhibition of human TGBC24TKB cell growth in a cell viability assay.
# SCC-15 = format: functional, cell-based, Homo sapiens; conditions: Homo sapiens, SCC-15;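 also: growth inhibition of SCC-15 cells, read out with a cell viability assay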
# Description: SANGER: Inhibition of human SCC-15 cell growth in a cell viability assay.
# HT-144 = format: functional, cell-based, Homo sapiens; conditions: Homo sapiens, HT-144
# Description: SANGER: Inhibition of human HT-144 cell growth in a cell viability assay.
# DB = format: functional, cell-based, Homo sapiens; conditions: Homo sapiens, DB
# Description: SANGER: Inhibition of human DB cell growth in a cell viability assay.
# GI-ME-N = format: functional, cell-based, Homo sapiens; conditions: Homo sapiens, GI-ME-N;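 also: growth inhibition of human GI-ME-N cells, read out with a cell viability assay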
# Description: SANGER: Inhibition of human GI-ME-N cell growth in a cell viability assay.
# VA-ES-BJ = format: functional, cell-based, Homo sapiens; conditions: Homo sapiens, VA-ES-BJ;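 also: growth inhibition of the VA-ES-BJ cell line, read out by a cell viability assay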
# Description: SANGER: Inhibition of human VA-ES-BJ cell growth in a cell viability assay.
# MN-60 = format: functional, cell-based, Homo sapiens; conditions: Homo sapiens, MN-60;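 also: growth inhibition of the MN-60 cell line, determined with a cell viability assay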
# Description: SANGER: Inhibition of human MN-60 cell growth in a cell viability assay.
# MSTO-211H = format: functional, cell-based, Homo sapiens; conditions: Homo sapiens, MSTO-211H
# Description: SANGER: Inhibition of human MSTO-211H cell growth in a cell viability assay.
# ES4 = format: functional, cell-based, Homo sapiens; conditions: Homo sapiens, ES4;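 also: growth inhibition of human ES4 cells, read out by a cell viability assay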
# Description: SANGER: Inhibition of human ES4 cell growth in a cell viability assay.
# CTB-1 = format: functional, cell-based, Homo sapiens; conditions: Homo sapiens, CTB-1
# Description: SANGER: Inhibition of human CTB-1 cell growth in a cell viability assay.
# EM-2 = format: functional, cell-based, Homo sapiens; conditions: Homo sapiens, EM-2;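 also: growth inhibition of EM-2 cells, read out with a cell viability assay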
# Description: SANGER: Inhibition of human EM-2 cell growth in a cell viability assay.
# EKVX = format: functional, cell-based, Homo sapiens; conditions: Homo sapiens, EKVX;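 also: growth inhibition of human EKVX cells, read out with a cell viability assay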
# Description: SANGER: Inhibition of human EKVX cell growth in a cell viability assay.
# LB831-BLC = format: functional, cell-based, Homo sapiens; conditions: Homo sapiens, LB831-BLC;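 also: growth inhibition of LB831-BLC cells, read out with a cell viability assay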
# Description: SANGER: Inhibition of human LB831-BLC cell growth in a cell viability assay.
# ONS-76 = format: functional, cell-based, Homo sapiens; conditions: Homo sapiens, ONS-76;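 also: growth inhibition of human ONS-76 cells, read out with a cell viability assay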
# Description: SANGER: Inhibition of human ONS-76 cell growth in a cell viability assay.
# Mo = format: functional, cell-based, Homo sapiens; conditions: Homo sapiens, Mo
# Description: SANGER: Inhibition of human Mo-T cell growth in a cell viability assay.
# LU-139 = format: functional, cell-based, Homo sapiens; conditions: Homo sapiens, LU-139
# Description: SANGER: Inhibition of human LU-139 cell growth in a cell viability assay.
# BB49-HNC = format: functional, cell-based, Homo sapiens; conditions: Homo sapiens, BB49-HNC;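 also: cell viability assay read-out, reported as inhibition of BB49-HNC cell growth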
# Description: SANGER: Inhibition of human BB49-HNC cell growth in a cell viability assay.
# ES5 = format: functional, cell-based, Homo sapiens; conditions: Homo sapiens, ES5;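 also: growth inhibition of human ES5 cells, read out by a cell viability assay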
# Description: SANGER: Inhibition of human ES5 cell growth in a cell viability assay.
compound,measurement,setting,value
C=CC(=O)N1CCCC(Nc2nc(Nc3ccc(N(C)C(=O)CC)cc3)nc3[nH]cnc23)C1 (configuration not stated),IC50,KURAMOCHI,> 10.2 µM
same,IC50,NCI-H1650,> 10.2 µM
same,IC50,HCC2218,> 10.2 µM
same,IC50,IST-MEL1,> 10.2 µM
same,IC50,SH-4,> 10.2 µM
same,IC50,697,> 10.2 µM
same,IC50,NOS-1,> 10.2 µM
same,IC50,no-10,> 10.2 µM
same,IC50,EW-3,> 10.2 µM
same,IC50,TGW,> 10.2 µM
same,IC50,ETK-1,> 10.2 µM
same,IC50,KALS-1,> 10.2 µM
same,IC50,TE-11,> 10.2 µM
same,IC50,RPMI-8866,> 10.2 µM
same,IC50,KU812 cell line,> 10.2 µM
same,IC50,SW982,> 10.2 µM
same,IC50,RCC10RGB,> 10.2 µM
same,IC50,GOTO,> 10.2 µM
same,IC50,MC116,> 10.2 µM
same,IC50,SK-MEL-1,> 10.2 µM
same,IC50,MZ1-PC,7.94 µM
same,IC50,RXF 393,> 10.2 µM
same,IC50,NCI-H446,> 10.2 µM
same,IC50,KP-N-YS,> 10.2 µM
same,IC50,TGBC1TKB,> 10.2 µM
same,IC50,SF-539,> 10.2 µM
same,IC50,HL-60,> 10.2 µM
same,IC50,JVM-2,> 10.2 µM
same,IC50,KGN,> 10.2 µM
same,IC50,NCI-H2126,> 10.2 µM
same,IC50,KS-1,8.01 µM
same,IC50,KNS-42,> 10.2 µM
same,IC50,K562,> 10.2 µM
same,IC50,TGBC24TKB,> 10.2 µM
same,IC50,SCC-15,> 10.2 µM
same,IC50,HT-144,> 10.2 µM
same,IC50,DB,> 10.2 µM
same,IC50,GI-ME-N,> 10.2 µM
same,IC50,VA-ES-BJ,> 10.2 µM
same,IC50,MN-60,> 10.2 µM
same,IC50,MSTO-211H,> 10.2 µM
same,IC50,ES4,> 10.2 µM
same,IC50,CTB-1,> 10.2 µM
same,IC50,EM-2,> 10.2 µM
same,IC50,EKVX,> 10.2 µM
same,IC50,LB831-BLC,2.95 µM
same,IC50,ONS-76,> 10.2 µM
same,IC50,Mo,> 10.2 µM
same,IC50,LU-139,> 10.2 µM
same,IC50,BB49-HNC,> 10.2 µM
same,IC50,ES5,> 10.2 µM
COc1ccc(-c2cc3nccn3c(Nc3ncccc3C(N)=O)n2)cc1OC,IC50,KURAMOCHI,7.41 µM
same,IC50,NCI-H1650,> 8 µM
same,IC50,HCC2218,> 8 µM
same,IC50,IST-MEL1,4.61 µM
same,IC50,SH-4,> 8 µM
same,IC50,697,0.582 µM
same,IC50,NOS-1,0.481 µM
same,IC50,no-10,> 8 µM
same,IC50,EW-3,4.93 µM
same,IC50,TGW,> 8 µM
same,IC50,ETK-1,5.21 µM
same,IC50,KALS-1,> 8 µM
same,IC50,TE-11,> 8 µM
same,IC50,RPMI-8866,> 8 µM
same,IC50,KU812 cell line,4.24 µM
same,IC50,SW982,0.775 µM
same,IC50,RCC10RGB,> 8 µM
same,IC50,GOTO,3.42 µM
same,IC50,MC116,2.51 µM
same,IC50,SK-MEL-1,> 8 µM
same,IC50,MZ1-PC,3.49 µM
same,IC50,RXF 393,6.81 µM
same,IC50,NCI-H446,4.99 µM
same,IC50,KP-N-YS,7 µM
same,IC50,TGBC1TKB,> 8 µM
same,IC50,SF-539,> 8 µM
same,IC50,HL-60,> 8 µM
same,IC50,JVM-2,> 8 µM
same,IC50,KGN,1.54 µM
same,IC50,NCI-H2126,> 8 µM
same,IC50,KS-1,2.78 µM
same,IC50,KNS-42,> 8 µM
same,IC50,K562,> 8 µM
same,IC50,TGBC24TKB,> 8 µM
same,IC50,SCC-15,> 8 µM
same,IC50,HT-144,3.72 µM
same,IC50,DB,6.64 µM
same,IC50,GI-ME-N,> 8 µM
same,IC50,VA-ES-BJ,> 8 µM
same,IC50,MN-60,> 8 µM
same,IC50,MSTO-211H,> 8 µM
same,IC50,ES4,1.24 µM
same,IC50,CTB-1,> 8 µM
same,IC50,EM-2,> 8 µM
same,IC50,EKVX,> 8 µM
same,IC50,LB831-BLC,1.02 µM
same,IC50,ONS-76,> 8 µM
same,IC50,Mo,4.96 µM
same,IC50,LU-139,> 8 µM
same,IC50,BB49-HNC,3.3 µM
same,IC50,ES5,> 8 µM
